Patent publication US20240254218A1 (ICAHN SCHOOL OF MEDICINE AT MOUNT SINAI, priority 2021, published 2024)

Experiments:
FSH receptor (FSHR) = target: T1, FSH receptor (FSHR) (Homo sapiens, UniProt P23945); details: cited from earlier work
T1 sequence (P23945 18-695): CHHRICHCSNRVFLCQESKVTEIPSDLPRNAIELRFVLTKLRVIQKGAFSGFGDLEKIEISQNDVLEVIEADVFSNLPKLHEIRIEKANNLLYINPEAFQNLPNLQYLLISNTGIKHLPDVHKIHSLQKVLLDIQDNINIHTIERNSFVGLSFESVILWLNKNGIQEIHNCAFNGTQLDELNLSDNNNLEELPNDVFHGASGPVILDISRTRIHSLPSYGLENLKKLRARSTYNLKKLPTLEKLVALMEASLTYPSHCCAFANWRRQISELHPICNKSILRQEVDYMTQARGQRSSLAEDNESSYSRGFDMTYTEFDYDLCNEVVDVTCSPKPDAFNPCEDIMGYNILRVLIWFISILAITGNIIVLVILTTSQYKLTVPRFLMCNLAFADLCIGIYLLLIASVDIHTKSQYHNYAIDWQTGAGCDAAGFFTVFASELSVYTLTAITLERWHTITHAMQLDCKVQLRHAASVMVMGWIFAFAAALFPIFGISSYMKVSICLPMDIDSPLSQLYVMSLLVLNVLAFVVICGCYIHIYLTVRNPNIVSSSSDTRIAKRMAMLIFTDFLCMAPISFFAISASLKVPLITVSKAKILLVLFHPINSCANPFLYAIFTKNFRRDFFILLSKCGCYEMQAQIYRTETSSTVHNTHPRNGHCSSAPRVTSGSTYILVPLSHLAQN

FSHR signaling = experiment: Pathway inhibitors on FSH-induced signalling in SH-SY5Y cells; type: cell-based, human; details: FSH 30 ng/ml 30 minutes; for FSH-induced SRPK2 phosphorylation/activation / FSH-induced AEP activation (cleavage and phosphorylation) / FSH-induced C/EBPβ activation/expression: AKTi-1/2 10 μM; for FSH-induced SRPK2 phosphorylation/activation / FSH-induced AEP activation (cleavage and phosphorylation) / FSH-induced C/EBPβ activation/expression / FSH-induced AKT phosphorylation: PD98059 10 μM; for FSH-induced AEP activation (cleavage and phosphorylation) / FSH-induced C/EBPβ activation/expression / FSH-induced AKT phosphorylation: PTX 50 ng/ml
From the text: Of note, MAPK-induced phosphorylation of residue T188 of C/EBPβ regulates its transcriptional activity (Ramji, D. P. & Foka, P. Biochem J 365, 561-575, (2002)). Likewise, AKT phosphorylates SRPK2, which, in turn, activates AEP by phosphorylating residue S266. […] Pertussis toxin inhibited FSH-induced C/EBPβ and AEP activation and AKT phosphorylation (FIG. 2E). […] In contrast, while the MEK1 inhibitor PD98059 blocked FSH-induced C/EBPβ, AEP and SRPK2 activation, AKT was unaffected (FIG. 2E).

| Molecule | mode of action on the FSH receptor (FSHR) (FSH receptor (FSHR)) | FSH-induced SRPK2 phosphorylation/activation (FSHR signaling) | FSH-induced AEP activation (cleavage and phosphorylation) (FSHR signaling) | FSH-induced C/EBPβ activation/expression (FSHR signaling) | FSH-induced AKT phosphorylation (FSHR signaling) | effect on any signaling molecule (FSHR signaling; SQ22536 100 μM) |
| --- | --- | --- | --- | --- | --- | --- |
| COc1ccc(N=Nc2c(S(=O)(=O)[O-])cc3cc(Nc4nc(Cl)nc(N(CCC(N)=O)CCC(N)=O)n4)ccc3c2O)cc1.[Na+] [7-[4-[Bis-(2-carbamoyl-ethyl)-amino]-6-chloro-(1,3,5)-triazin-2-ylamino)-4-hydroxy-3-(4-methoxy-phenylazo)-naphthalene]-2-sulfonic acid, sodium salt] | selective, noncompetitive inhibitor |  |  |  |  |  |
| O=c1[nH]c2ccccc2n1C1CCN(Cc2ccc(-c3nc4cc5nc[nH]c5cc4nc3-c3ccccc3)cc2)CC1 [AKTi-1/2] |  | attenuated | attenuated | attenuated |  |  |
| COc1cccc(-c2cc(=O)c3ccccc3o2)c1N [PD98059] |  | blocked | blocked | blocked | unaffected |  |
| Nc1ncnc2c1ncn2C1CCCO1 (stereo not drawn) [SQ22536] |  |  |  |  |  | Absence of an effect |
| pertussis toxin |  |  | inhibited | inhibited | inhibited |  |
